Legend:
Format in all cases: functional
[1] = test system: Canis familiaris; test: Inhibition of isoproterenol-induced increase in heart rate in bilaterally vagotomized open chest mongrel dog model at 0.42 mg/kg, iv administered 10 to 20 mins prior to and following isoproterenol challenge; settings: Canis lupus familiaris
[2] = test system: Canis familiaris; test: Inhibition of isoproterenol-induced increase in heart rate in bilaterally vagotomized open chest mongrel dog model at 14.58 mg/kg, iv administered 10 to 20 mins prior to and following isoproterenol challenge; settings: Canis lupus familiaris
[3] = test system: Canis familiaris; test: Inhibition of isoproterenol-induced decrease in diastolic blood pressure in bilaterally vagotomized open chest mongrel dog model at 14.58 mg/kg, iv administered 10 to 20 mins prior to and following isoproterenol challenge; settings: Canis lupus familiaris, Artery
[4] = test system: Canis familiaris; test: Inhibition of isoproterenol-induced decrease in diastolic blood pressure in bilaterally vagotomized open chest mongrel dog model at 0.1 mg/kg, iv administered 10 to 20 mins prior to and following isoproterenol challenge; settings: Canis lupus familiaris, Artery
[5] = test system: Canis familiaris; test: Inhibition of isoproterenol-induced increase in heart rate in bilaterally vagotomized open chest mongrel dog model at 4.58 mg/kg, iv administered 10 to 20 mins prior to and following isoproterenol challenge; settings: Canis lupus familiaris
[6] = test system: Canis familiaris; test: Inhibition of isoproterenol-induced increase in heart rate in bilaterally vagotomized open chest mongrel dog model at 0.1 mg/kg, iv administered 10 to 20 mins prior to and following isoproterenol challenge; settings: Canis lupus familiaris
[7] = test system: Canis familiaris; test: Inhibition of isoproterenol-induced increase in heart rate in bilaterally vagotomized open chest mongrel dog model at 1.42 mg/kg, iv administered 10 to 20 mins prior to and following isoproterenol challenge; settings: Canis lupus familiaris
[8] = test system: Canis familiaris; test: Inhibition of isoproterenol-induced decrease in diastolic blood pressure in bilaterally vagotomized open chest mongrel dog model at 1.42 mg/kg, iv administered 10 to 20 mins prior to and following isoproterenol challenge; settings: Canis lupus familiaris, Artery
[9] = test system: Canis familiaris; test: Inhibition of isoproterenol-induced increase in heart rate in iv dosed bilaterally vagotomized open chest mongrel dog model administered 10 to 20 mins prior to and following isoproterenol challenge; settings: Canis lupus familiaris
[10] = test system: Canis familiaris; test: Inhibition of isoproterenol-induced decrease in diastolic blood pressure in bilaterally vagotomized open chest mongrel dog model at 4.58 mg/kg, iv administered 10 to 20 mins prior to and following isoproterenol challenge; settings: Canis lupus familiaris, Artery
[11] = test system: Canis familiaris; test: Inhibition of isoproterenol-induced decrease in diastolic blood pressure in iv dosed bilaterally vagotomized open chest mongrel dog model administered 10 to 20 mins prior to and following isoproterenol challenge; settings: Canis lupus familiaris, Artery
[12] = test system: Canis familiaris; test: Inhibition of isoproterenol-induced decrease in diastolic blood pressure in bilaterally vagotomized open chest mongrel dog model at 0.42 mg/kg, iv administered 10 to 20 mins prior to and following isoproterenol challenge; settings: Canis lupus familiaris, Artery
[13] = test system: Canis familiaris; test: Inhibition of isoproterenol-induced decrease in diastolic blood pressure in bilaterally vagotomized open chest mongrel dog model at 0.13 mg/kg, iv administered 10 to 20 mins prior to and following isoproterenol challenge; settings: Canis lupus familiaris, Artery
[14] = test system: Canis familiaris; test: Inhibition of isoproterenol-induced increase in heart rate in bilaterally vagotomized open chest mongrel dog model at 4.61 mg/kg, iv administered 10 to 20 mins prior to and following isoproterenol challenge; settings: Canis lupus familiaris
[15] = test system: Canis familiaris; test: Inhibition of isoproterenol-induced decrease in diastolic blood pressure in bilaterally vagotomized open chest mongrel dog model at 0.45 mg/kg, iv administered 10 to 20 mins prior to and following isoproterenol challenge; settings: Canis lupus familiaris, Artery
[16] = test system: Canis familiaris; test: Inhibition of isoproterenol-induced increase in heart rate in bilaterally vagotomized open chest mongrel dog model at 0.45 mg/kg, iv administered 10 to 20 mins prior to and following isoproterenol challenge; settings: Canis lupus familiaris
[17] = test system: Canis familiaris; test: Inhibition of isoproterenol-induced increase in heart rate in bilaterally vagotomized open chest mongrel dog model at 0.13 mg/kg, iv administered 10 to 20 mins prior to and following isoproterenol challenge; settings: Canis lupus familiaris
[18] = test system: Canis familiaris; test: Inhibition of isoproterenol-induced decrease in diastolic blood pressure in bilaterally vagotomized open chest mongrel dog model at 4.61 mg/kg, iv administered 10 to 20 mins prior to and following isoproterenol challenge; settings: Canis lupus familiaris, Artery
[19] = test system: Canis familiaris; test: Inhibition of isoproterenol-induced increase in heart rate in bilaterally vagotomized open chest mongrel dog model at 1.45 mg/kg, iv administered 10 to 20 mins prior to and following isoproterenol challenge; settings: Canis lupus familiaris
[20] = test system: Canis familiaris; test: Inhibition of isoproterenol-induced decrease in diastolic blood pressure in bilaterally vagotomized open chest mongrel dog model at 1.45 mg/kg, iv administered 10 to 20 mins prior to and following isoproterenol challenge; settings: Canis lupus familiaris, Artery
[21] = test system: Canis familiaris; test: Inhibition of isoproterenol-induced increase in heart rate in bilaterally vagotomized open chest mongrel dog model at 0.03 mg/kg, iv administered 10 to 20 mins prior to and following isoproterenol challenge; settings: Canis lupus familiaris
[22] = test system: Canis familiaris; test: Inhibition of isoproterenol-induced decrease in diastolic blood pressure in bilaterally vagotomized open chest mongrel dog model at 0.03 mg/kg, iv administered 10 to 20 mins prior to and following isoproterenol challenge; settings: Canis lupus familiaris, Artery

| Compound | inhibition in vivo at 0.42 mg/kg [1] [%] | inhibition in vivo at 14.58 mg/kg [2] [%] | inhibition in vivo at 14.58 mg/kg [3] [%] | inhibition in vivo at 0.1 mg/kg [4] [%] | inhibition in vivo at 4.58 mg/kg [5] [%] | inhibition in vivo at 0.1 mg/kg [6] [%] | inhibition in vivo at 1.42 mg/kg [7] [%] | inhibition in vivo at 1.42 mg/kg [8] [%] | ED50 [9] [mg/kg] | inhibition in vivo at 4.58 mg/kg [10] [%] | ED50 [11] [mg/kg] | inhibition in vivo at 0.42 mg/kg [12] [%] | also measured |
| --- | --- | --- | --- | --- | --- | --- | --- | --- | --- | --- | --- | --- | --- |
| CC(C)(C)NCC(O)COc1ncns1 (configuration not stated) | 49.5 | 97.5 | 76.5 | 3 | 91 | 23.5 | 70 | 13.5 | 0.4 | 50 | 5.7 | 1 |  |
| Cc1nsc(OCC(O)CNC(C)(C)C)n1 (configuration not stated) | 24.2 | 92.3 | 85.3 | 7.7 | 59.8 | 15 | 39.5 | 35.5 | 3.6 | 55.5 | 3.5 | 12.8 |  |
| CC(C)(C)NCC(O)COc1nc(-c2ccccc2)ns1 (configuration not stated) | 5.7 | 68 | 100 | 3.7 | 23.8 | 7 | 9.5 | 16.5 | 19.3 | 41.5 | 4.9 | 5.3 |  |
| CC(C)NCC(O)COc1cc(Cl)nc(-c2ccccc2)n1 (configuration not stated) | 6 | 49 | 19 | 5 | 16.7 | 3 | 18 | 10.3 | > 14.6 | 21 | > 14.6 | 16.5 |  |
| CC(C)(C)NCC(O)COc1nnnn1-c1ccccc1 (configuration not stated) | 10.5 | 91 | 98.7 | 6.7 | 63 | 5.7 | 32.5 | 44.8 | 3 | 76.2 | 1.5 | 21.2 |  |
| CC(C)NCC(O)COc1cccc2ccccc12 (configuration not stated) [PROPRANOLOL] |  |  |  |  |  |  |  |  | 0.09 |  | 0.06 |  | inhibition in vivo at 0.13 mg/kg [13]: 63.5%; inhibition in vivo at 4.61 mg/kg [14]: 98.4%; inhibition in vivo at 0.45 mg/kg [15]: 80.8%; inhibition in vivo at 0.45 mg/kg [16]: 85.2%; inhibition in vivo at 0.13 mg/kg [17]: 62%; inhibition in vivo at 4.61 mg/kg [18]: 96.6%; inhibition in vivo at 1.45 mg/kg [19]: 95.8%; inhibition in vivo at 1.45 mg/kg [20]: 90.7%; inhibition in vivo at 0.03 mg/kg [21]: 24.7%; inhibition in vivo at 0.03 mg/kg [22]: 40.5% |

Reference: ChEMBL document CHEMBL3272143, “Synthesis of heteroaromatic potential beta-adrenergic antagonists by the glycidol route” (1978)
